pEC50, pIC50: −log10 of the molar value. Where two headings read alike, the source gives them in different places.
How the values were obtained:
HCV NS5B = target: T1, HCV NS5B (Hepatitis C virus genotype 1b, UniProt Q9WMX2); assay: Inhibition of viral RNA-dependent RNA polymerase (RdRp), in vitro biochemical assay; parameters: species or system HCV genotype 1b virus (BB7); conditions: HCV NS5B RdRp, BB7, read-out: HCV pol-BB7 IC50
T1 construct: fusion protein, of which the carboxyl terminal 21 amino acids were removed to enhance its solubility; His tag (GSHHHHHH); made in house; host or cells: E. coli
Procedure, shortened: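 Purified recombinant NS5B from a genotype 1b consensus (BB7), His-tagged, E. coli-expressed, with the C-terminal 21 residues deleted. Inhibition of RdRp activity in vitro was measured, and IC50 is the concentration giving 50% inhibition.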

[1] = test system: HCV replicon (BB7 sequence) in Huh-7-Clone A cells; assay: HCV replicon assay: ELISA of NS5A protein in replicon-containing cells (Inhibition of Viral RNA Replication); assay type: cell-based; conditions: Hepatitis C virus, read-out: Replicon
Procedure, shortened: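 Huh-7-Clone A cells carrying subgenomic BB7 HCV replicon (G418-selectable) incubated 72 h with compound. NS5A protein quantified by cell ELISA: glutaraldehyde fixation, anti-NS5A monoclonal plus HRP secondary, TMB read at OD 650 nm. EC50 derived from 8-point serial dilution dose curve.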

[2] = HCV replicon assay, ranges of EC50

CNC(=O)c1c(-c2ccc(F)cc2)oc2cc(N(CCOC)S(C)(=O)=O)c(OC)cc12 [Example 240, 2-(4-Fluoro-phenyl)-6-[methanesulfonyl-(2-methoxy-ethyl)-amino]-5-methoxy-benzofuran-3-carboxylic acid methylamide]
pIC50 (HCV NS5B; reported as range class): ≥ 6.30
pEC50 ([1]; HCV replicon, range of EC50): > 6.00

CNC(=O)c1c(-c2ccc(F)cc2)oc2cc(-c3cc(C4CC4)no3)c(OC(C)C)cc12 [Example 241, 6-(3-Cyclopropyl-isoxazol-5-yl)-2-(4-fluoro-phenyl)-5-isopropoxy-benzofuran-3-carboxylic acid methylamide]
pIC50 (HCV NS5B; reported as range class): 5.30 to 6.30
pEC50 ([1]; HCV replicon, range of EC50): > 5.00

CNC(=O)c1c(-c2ccc(F)cc2)oc2cc(-c3cc(COC)no3)c(OC(C)C)cc12 [Example 242, 2-(4-Fluoro-phenyl)-5-isopropoxy-6-(3-methoxymethyl-isoxazol-5-yl)-benzofuran-3-carboxylic acid methylamide]
pIC50 (HCV NS5B; reported as range class): 5.30 to 6.30
pEC50 ([1]; HCV replicon, range of EC50): 4.52

CNC(=O)c1c(-c2ccc(F)cc2)oc2cc(NS(C)(=O)=O)ccc12 [Example 243, 2-(4-Fluoro-phenyl)-6-methanesulfonylamino-benzofuran-3-carboxylic acid methylamide]
pIC50 (HCV NS5B; reported as range class): 5.30 to 6.30
pEC50 ([1]; HCV replicon, range of EC50): > 5.00

CNC(=O)c1c(-c2ccc(F)cc2)oc2cc(-c3ncc[nH]3)c(OC(C)C)cc12 [Example 244, 2-(4-Fluoro-phenyl)-6-(1H-imidazol-2-yl)-5-isopropoxy-benzofuran-3-carboxylic acid methylamide]
pIC50 (HCV NS5B; reported as range class): ≥ 6.30
pEC50 ([1]; HCV replicon, range of EC50): > 6.00

CNC(=O)c1c(-c2ccc(F)cc2)oc2cc(-c3cc(C)nn3C)c(OC(C)C)cc12 [Example 245, 6-(2,5-Dimethyl-2H-pyrazol-3-y1)-2-(4-fluoro-phenyl)-5-isopropoxybenzofuran 3-carboxylic acid methylamide]
pIC50 (HCV NS5B; reported as range class): 5.30 to 6.30
pEC50 ([1]; HCV replicon, range of EC50): > 5.00

CNC(=O)c1c(-c2ccc(F)cc2)oc2cc(-c3c(C)n[nH]c3C)c(OC(C)C)cc12 [Example 246, 6-(3,5-Dimethyl-1H-pyrazol-4-yl)-2-(4-fluoro-phenyl)-5-isopropoxy-benzofuran-3-carboxylic acid methylamide]
pIC50 (HCV NS5B; reported as range class): ≥ 6.30
pEC50 ([1]; HCV replicon, range of EC50): > 6.00

CNC(=O)c1c(-c2ccc(F)cc2)oc2cc(-c3cc(C)n[nH]3)c(OC(C)C)cc12 [Example 247, 2-(4-Fluoro-phenyl)-5-isopropoxy-6-(5-methyl-2H-pyrazol-3-yl)-benzofuran-3-carboxylic acid methylamide]
pIC50 (HCV NS5B; reported as range class): 5.30 to 6.30
pEC50 ([1]; HCV replicon, range of EC50): > 5.00

CNC(=O)c1c(-c2ccc(F)cc2)oc2cc(-c3cc(C)n(C)n3)c(OC(C)C)cc12 [Example 248, 6-(1,5-Dimethyl-1H-pyrazol-3-yl)-2-(4-fluoro-phenyl)-5-isopropoxy-benzofuran-3-carboxylic acid methylamide]
pIC50 (HCV NS5B; reported as range class): 5.30 to 6.30
pEC50 ([1]; HCV replicon, range of EC50): > 5.00

CNC(=O)c1c(-c2ccc(F)cc2)oc2cc(CN(C)S(C)(=O)=O)c(OC(C)C)cc12 [Example 249, 2-(4-Fluoro-phenyl)-5-isopropoxy-6-[(methanesulfonyl-methyl-amino)-methyl]-benzofuran-3-carboxylic acid methylamide]
pIC50 (HCV NS5B; reported as range class): ≥ 6.30
pEC50 ([1]; HCV replicon, range of EC50): > 5.00

CNC(=O)c1c(-c2ccc(F)cc2)oc2cc(N3CCOCC3)c(OCC(C)(C)O)cc12 [Example 250, 2-(4-Fluoro-phenyl)-5-(2-hydroxy-2-methyl-propoxy)-6-morpholin-4-ylbenzofuran-3-carboxylic acid methylamide]
pIC50 (HCV NS5B; class symbols A-D): 5.30 to 6.30
pEC50 [1, 2]: > 5.00

CCC(C)(O)COc1cc2c(C(=O)NC)c(-c3ccc(F)cc3)oc2cc1N1CCOCC1 (stereo not drawn) [Example 251, 2-(4-Fluoro-phenyl)-5-(2-hydroxy-2-methyl-butoxy)-6-morpholin-4-yl-benzofuran-3-carboxylic acid methylamide]
pIC50 (HCV NS5B; class symbols A-D): 5.30 to 6.30
pEC50 [1, 2]: > 5.00

CNC(=O)c1c(-c2ccc(F)cc2)oc2cc(N3CCOCC3)c(OCC(C)O)cc12 (stereo not drawn) [Example 252, 2-(4-Fluoro-phenyl)-5-(2-hydroxy-propoxy)-6-morpholin-4-yl-benzofuran-3-carboxylic acid methylamide]
pIC50 (HCV NS5B; class symbols A-D): 5.30 to 6.30
pEC50 [1, 2]: > 5.00

CNC(=O)c1c(-c2ccc(F)cc2)oc2cc(N(CC(C)O)S(C)(=O)=O)c(OC(C)C)cc12 (stereo not drawn) [Example 253, 2-(4-Fluoro-phenyl)-6-[(2-hydroxy-propyl)-methanesulfonyl-amino]-5-isopropoxy-benzofuran-3-carboxylic acid methylamide]
pIC50 (HCV NS5B; class symbols A-D): ≥ 6.30
pEC50 [1, 2]: > 6.00

CNC(=O)c1c(-c2ccc(F)cc2)oc2cc(N3CCOCC3)c(OC(C)c3nccs3)cc12 (stereo not drawn) [Example 254, 2-(4-Fluoro-phenyl)-6-morpholin-4-yl-5-(1-thiazol-2-yl-ethoxy)-benzofuran-3-carboxylic acid methylamide]
pIC50 (HCV NS5B; class symbols A-D): ≥ 6.30
pEC50 [1, 2]: > 6.00

CCN(c1cc2oc(-c3ccc(F)cc3)c(C(=O)NC)c2cc1OC(C)C)S(C)(=O)=O [Example 255, 6-(Ethyl-methanesulfonyl-amino)-2-(4-fluoro-phenyl)-5-isopropoxy-benzofuran-3-carboxylic acid methylamide]
pIC50 (HCV NS5B; class symbols A-D): ≥ 6.30
pEC50 [1, 2]: > 6.00

CNC(=O)c1c(-c2ccc(F)cc2)oc2cc(-c3c(C)n[nH]c3C)c(OC)cc12 [Example 256, 6-(3,5-Diinethyl-1H-pyrazol-4-yl)-2-(4-fluoro-phenyl)-5-methoxy-benzofuran-3-carboxylic acid methylamide]
pIC50 (HCV NS5B; class symbols A-D): ≥ 6.30
pEC50 [1, 2]: > 6.00

CNC(=O)c1c(-c2ccc(F)cc2)oc2cc(-c3cn[nH]c3C)c(OC(C)C)cc12 [Example 257, 2-(4-Fluoro-phenyl)-5-isopropoxy-6-(5-methyl-1H-pyrazol-4-yl)-benzofuran-3-carboxylic acid methylamide]
pIC50 (HCV NS5B; class symbols A-D): ≥ 6.30
pEC50 [1, 2]: > 6.00

CNC(=O)c1c(-c2ccc(F)cc2)oc2ccc(OCc3cccc(C(=O)OC)c3)cc12 [Example 258, 3-[2-(4-Fluoro-phenyl)-3-methylcarbamoyl-benzofuran-5-yloxymethyl]-benzoic acid methyl ester]
pIC50 (HCV NS5B; class symbols A-D): ≥ 6.30
pEC50 [1, 2]: < 4.52

CNC(=O)c1c(-c2ccc(F)cc2)oc2ccc(OCc3ccc(C(=O)O)cc3)cc12 [Example 259, 4-[2-(4-Fluoro-phenyl)-3-methylcarbamoyl-benzofuran-5-yloxymethyl]-benzoic acid]
pIC50 (HCV NS5B; class symbols A-D): 5.30 to 6.30
pEC50 [1, 2]: > 4.52

CNC(=O)c1c(-c2ccc(F)cc2)oc2ccc(OCc3cccc(C(=O)O)c3)cc12 [Example 260, 3-[2-(4-Fluoro-phenyl)-3-methylcarbamoyl-benzofuran-5-yloxymethyl]-benzoic acid]
pIC50 (HCV NS5B; class symbols A-D): ≥ 6.30
pEC50 [1, 2]: < 4.52

CNC(=O)c1c(-c2ccc(F)cc2)oc2cc(C(C)=O)c(OC)cc12 [Example 261, 6-Acetyl-2-(4-fluoro-phenyl)-5-methoxy-benzofuran-3-carboxylic acid methylamide]
pIC50 (HCV NS5B; class symbols A-D): ≥ 6.30
pEC50 [1, 2]: > 6.00

CNC(=O)c1c(-c2ccc(F)cc2)oc2cc(N3CCOCC3)c(OCc3ccc(C(=O)OC)cc3)cc12 [Example 262, 4-[2-(4-Fluoro-phenyl)-3-methylcarbamoyl-6-morpholin-4-yl-benzofuran-5-yloxymethyl]-benzoic acid methyl ester]
pIC50 (HCV NS5B; class symbols A-D): ≥ 6.30
pEC50 [1, 2]: > 5.00

CNC(=O)c1c(-c2ccc(F)cc2)oc2cc(N3CCOCC3)c(OCc3cccc(C(=O)OC)c3)cc12 [Example 263, 3-[2-(4-Fluoro-phenyl)-3-methylcarbamoyl-6-morpholin-4-yl-benzofuran-5-yloxymethyl]-benzoic acid methyl ester]
pIC50 (HCV NS5B; class symbols A-D): ≥ 6.30
pEC50 [1, 2]: > 5.00

CNC(=O)c1c(-c2ccc(F)cc2)oc2cc(-c3c(C)nn(C)c3C)c(OC(C)C)cc12 [Example 264, 2-(4-Fluoro-phenyl)-5-isopropoxy-6-(1,3,5-trimethyl-1H-pyrazol-4-yl)-benzofuran-3-carboxylic acid methylamide]
pIC50 (HCV NS5B; class symbols A-D): 5.30 to 6.30
pEC50 [1, 2]: > 5.00

CNC(=O)c1c(-c2ccc(F)cc2)oc2cc(C3CCCN3)c(OC(C)C)cc12 (stereo not drawn) [Example 265, 2-(4-Fluoro-phenyl)-5-isopropoxy-6-pyrrolidin-2-yl-benzofuran-3-carboxylic acid methylamide]
pIC50 (HCV NS5B; class symbols A-D): 4.52 to 5.30
pEC50 [1, 2]: < 4.52

CNC(=O)c1c(-c2ccc(F)cc2)oc2cc(C#N)c(OC)cc12 [Example 266, 6-Cyano-2-(4-fluoro-phenyl)-5-methoxy-benzofuran-3-carboxylic acid methylamide]
pIC50 (HCV NS5B; class symbols A-D): ≥ 6.30
pEC50 [1, 2]: > 6.00

CNC(=O)c1c(-c2ccc(F)cc2)oc2cc(N3CCOCC3)c(OCc3ccc(C(=O)O)cc3)cc12 [Example 267, 4-[2-(4-Fluoro-phenyl)-3-methylcarbamoyl-6-morpholin-4-yl-benzofuran-5-yloxymethyl]-benzoic acid]
pIC50 (HCV NS5B; class symbols A-D): ≥ 6.30
pEC50 [1, 2]: > 5.00

CNC(=O)c1c(-c2ccc(F)cc2)oc2cc(N3CCOCC3)c(OCc3cccc(C(=O)O)c3)cc12 [Example 268, 3-[2-(4-Fluoro-phenyl)-3-methylcarbamoyl-6-morpholin-4-yl-benzofuran-5-yloxymethyl]-benzoic acid]
pIC50 (HCV NS5B; class symbols A-D): ≥ 6.30
pEC50 [1, 2]: > 5.00

CNC(=O)c1c(-c2ccc(F)cc2)oc2cc(N(Cc3nnnn3C)S(C)(=O)=O)c(OC(C)C)cc12 [Example 269, 2-(4-Fluoro-phenyl)-5-isopropoxy-6-[methanesulfonyl-(1-methyl-1H-tetrazol-5-ylmethyl)-amino]-benzofuran-3-carboxylic acid methylamide]
pIC50 (HCV NS5B; class symbols A-D): ≥ 6.30
pEC50 [1, 2]: > 6.00

From US7265152B2 (ViroPharma Incorporated, priority 2002, dated 2007)
